pIC50, pKi: −log10 of the molar value. A value given as a limit tells only on which side of the number the result lay.

For assay [1], the target named is Acetylcholinesterase (Homo sapiens, UniProt P22303).
Description: Inhibition of human AChE assessed as acetylthiocholine hydrolysis
Assay [2] concerns the target Cholinesterase (Homo sapiens, UniProt P06276).
Description: Inhibition of human BChE assessed as acetylthiocholine hydrolysis
Assay [3] has as its target Amyloid-beta precursor protein (Homo sapiens, UniProt P05067).
Description: Inhibition of self mediated amyloid beta (1 to 42) aggregation (unknown origin) after 10 hrs by ThT-based fluorescence assay
The target in assay [4] is Beta-secretase 1 (Homo sapiens, UniProt P56817).
Sequence of Beta-secretase 1 (P56817 whole entry): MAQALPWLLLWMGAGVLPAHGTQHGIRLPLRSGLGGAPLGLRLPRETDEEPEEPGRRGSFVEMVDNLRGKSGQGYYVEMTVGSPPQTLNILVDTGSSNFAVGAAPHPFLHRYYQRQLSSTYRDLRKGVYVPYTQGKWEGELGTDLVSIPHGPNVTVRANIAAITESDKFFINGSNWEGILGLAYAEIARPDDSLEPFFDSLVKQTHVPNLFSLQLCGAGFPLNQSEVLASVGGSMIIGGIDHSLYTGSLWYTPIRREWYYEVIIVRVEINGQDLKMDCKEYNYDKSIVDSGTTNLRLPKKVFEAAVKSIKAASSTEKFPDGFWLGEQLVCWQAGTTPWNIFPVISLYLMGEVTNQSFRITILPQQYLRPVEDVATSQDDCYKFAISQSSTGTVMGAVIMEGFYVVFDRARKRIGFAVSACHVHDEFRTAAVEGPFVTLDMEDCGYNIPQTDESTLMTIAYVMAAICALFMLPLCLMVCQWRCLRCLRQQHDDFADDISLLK

Sequence of Acetylcholinesterase (P22303 whole entry): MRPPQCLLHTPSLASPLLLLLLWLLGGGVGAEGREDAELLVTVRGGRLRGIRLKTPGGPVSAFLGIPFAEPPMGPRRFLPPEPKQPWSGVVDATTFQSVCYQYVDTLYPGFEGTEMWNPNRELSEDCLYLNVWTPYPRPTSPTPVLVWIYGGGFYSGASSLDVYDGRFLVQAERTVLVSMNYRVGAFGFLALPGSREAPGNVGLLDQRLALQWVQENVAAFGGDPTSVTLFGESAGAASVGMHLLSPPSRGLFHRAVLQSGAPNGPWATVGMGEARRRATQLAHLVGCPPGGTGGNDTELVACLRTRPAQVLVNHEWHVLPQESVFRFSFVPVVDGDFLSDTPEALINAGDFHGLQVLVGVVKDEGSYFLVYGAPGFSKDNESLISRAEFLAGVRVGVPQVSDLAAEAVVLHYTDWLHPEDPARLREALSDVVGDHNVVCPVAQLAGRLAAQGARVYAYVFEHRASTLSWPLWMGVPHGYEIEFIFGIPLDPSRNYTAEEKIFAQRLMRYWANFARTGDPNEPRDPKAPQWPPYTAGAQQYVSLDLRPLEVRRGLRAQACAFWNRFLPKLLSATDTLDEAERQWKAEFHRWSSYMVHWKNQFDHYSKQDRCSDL
Sequence of Amyloid-beta precursor protein (P05067 whole entry): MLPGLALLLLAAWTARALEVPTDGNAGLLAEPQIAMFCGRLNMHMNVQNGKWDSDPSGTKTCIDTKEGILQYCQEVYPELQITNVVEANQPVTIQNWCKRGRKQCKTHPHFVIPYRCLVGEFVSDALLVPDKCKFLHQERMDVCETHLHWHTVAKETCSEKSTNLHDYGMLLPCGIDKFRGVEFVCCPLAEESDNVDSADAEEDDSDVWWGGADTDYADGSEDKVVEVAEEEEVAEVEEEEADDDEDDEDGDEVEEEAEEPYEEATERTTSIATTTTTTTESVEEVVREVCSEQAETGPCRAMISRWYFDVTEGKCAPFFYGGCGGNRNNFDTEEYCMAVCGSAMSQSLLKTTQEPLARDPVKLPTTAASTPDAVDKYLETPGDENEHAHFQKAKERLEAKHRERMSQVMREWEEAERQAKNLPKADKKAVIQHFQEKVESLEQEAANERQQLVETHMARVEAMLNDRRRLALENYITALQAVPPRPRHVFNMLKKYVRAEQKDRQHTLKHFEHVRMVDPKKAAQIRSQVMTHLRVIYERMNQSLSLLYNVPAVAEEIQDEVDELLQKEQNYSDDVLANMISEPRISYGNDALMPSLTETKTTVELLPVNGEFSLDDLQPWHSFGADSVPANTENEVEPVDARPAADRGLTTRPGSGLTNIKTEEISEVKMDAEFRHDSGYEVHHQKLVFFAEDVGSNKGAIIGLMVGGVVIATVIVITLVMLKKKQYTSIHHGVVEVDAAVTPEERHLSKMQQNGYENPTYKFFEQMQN
Sequence of Cholinesterase (P06276 whole entry): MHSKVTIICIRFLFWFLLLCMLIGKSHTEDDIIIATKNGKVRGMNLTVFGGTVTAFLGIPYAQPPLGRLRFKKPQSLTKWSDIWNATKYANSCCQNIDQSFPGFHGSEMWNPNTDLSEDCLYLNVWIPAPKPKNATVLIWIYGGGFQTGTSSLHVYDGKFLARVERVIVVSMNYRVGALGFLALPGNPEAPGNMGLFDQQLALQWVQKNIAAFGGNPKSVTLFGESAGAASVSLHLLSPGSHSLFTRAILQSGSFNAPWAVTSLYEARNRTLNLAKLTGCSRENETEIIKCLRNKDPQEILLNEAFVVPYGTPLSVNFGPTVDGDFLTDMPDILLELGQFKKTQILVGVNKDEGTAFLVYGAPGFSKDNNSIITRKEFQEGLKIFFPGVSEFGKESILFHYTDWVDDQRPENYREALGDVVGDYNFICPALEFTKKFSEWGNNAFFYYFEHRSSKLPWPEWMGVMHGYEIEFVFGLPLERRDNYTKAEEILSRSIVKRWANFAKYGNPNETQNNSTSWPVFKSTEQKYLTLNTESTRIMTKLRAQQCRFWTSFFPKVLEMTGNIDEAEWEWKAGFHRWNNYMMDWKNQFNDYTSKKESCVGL

Regarding `O=C(NCCCCCCCNc1c2c(nc3ccccc13)CCCC2)c1cc2cc(OC(F)(F)F)ccc2oc1=O`, the pKi in assay [1] was 7.11; in assay [2] it was 7.40.
Taken in the same sequence, the figures for `COc1ccc2oc(=O)c(C(=O)NCCCCCNc3c4c(nc5ccccc35)CCCC4)cc2c1` were 7.40 and 7.47.
For `Cc1ccc2oc(=O)c(C(=O)NCCCCCCNc3c4c(nc5ccccc35)CCCC4)cc2c1`, the results for the negative-log IC50 (pIC50) in assay [3] and in assay [4] were 5.30 and < 4.00, respectively. Also, the pKi was 7.52 in assay [1] and 7.63 in assay [2].
The like results for `Cc1ccc2oc(=O)c(C(=O)NCCCCCCCNc3c4c(nc5ccccc35)CCCC4)cc2c1` were, in that order, 5.21, 4.37, 7.18 and 7.29.
For the compound `COc1cc2cc(C(=O)NCCCCCCCNc3c4c(nc5ccccc35)CCCC4)c(=O)oc2cc1OC`, the pKi was 7.04 in assay [1] and 7.43 in assay [2].
For `O=C(NCCCCCNc1c2c(nc3ccccc13)CCCC2)c1cc2ccccc2oc1=O`, the negative-log IC50 (pIC50) in assay [3] was < 4.00; in assay [4], 4.40. Further, the pKi is 7.46 in assay [1] and 7.50 in assay [2].
Taken in the same sequence, the figures for `O=C(NCCCCCCNc1c2c(nc3ccccc13)CCCC2)c1cc2cc(OC(F)(F)F)ccc2oc1=O` were 4.62, 4.65, 7.22 and 7.76.
On to `O=C(NCCCCCCCNc1c2c(nc3ccccc13)CCCC2)c1cc2ccccc2oc1=O`, for which the pKi in assay [1] was 7.37; in assay [2] it was 7.70.
The like results for `COc1ccc2oc(=O)c(C(=O)NCCCCCCNc3c4c(nc5ccccc35)CCCC4)cc2c1` were, in that order, 7.61 and 7.63.
Taken in the same sequence, the figures for `O=C(NCCCCCNc1c2c(nc3ccccc13)CCCC2)c1cc2cc(OC(F)(F)F)ccc2oc1=O` were 7.12 and 7.49.
Consider `O=C(NCCCCCCNc1c2c(nc3ccccc13)CCCC2)c1cc2ccccc2oc1=O`, for which the results for the pIC50 in assay [3] and in assay [4] were < 4.00 and 4.76, respectively. Besides, the negative logarithm of the Ki (pKi) was 7.78 in assay [1] and 7.79 in assay [2].
Take `COc1ccc2cc(C(=O)NCCCCCCCNc3c4c(nc5ccccc35)CCCC4)c(=O)oc2c1`: the pKi in assay [1] is 7.26; in assay [2] it was 7.46.
In the case of `COc1cc2cc(C(=O)NCCCCCNc3c4c(nc5ccccc35)CCCC4)c(=O)oc2cc1OC`, the pKi was 7.15 in assay [1] and 8.09 in assay [2].
Taken in the same sequence, the figures for `COc1ccc2cc(C(=O)NCCCCCCNc3c4c(nc5ccccc35)CCCC4)c(=O)oc2c1` were 7.51 and 7.69.
Taken in the same sequence, the figures for `COc1ccc2cc(C(=O)NCCCCCNc3c4c(nc5ccccc35)CCCC4)c(=O)oc2c1` were 7.35 and 7.53.
The like results for `COc1cc2cc(C(=O)NCCCCCCNc3c4c(nc5ccccc35)CCCC4)c(=O)oc2cc1OC` were, in that order, 7.25 and 7.51.
In the case of `COc1ccc2oc(=O)c(C(=O)NCCCCCCCNc3c4c(nc5ccccc35)CCCC4)cc2c1`, the negative logarithm of the IC50 (pIC50) in assay [3] is 4.87; in assay [4] it was 4.69. Also, the pKi is 7.29 in assay [1] and 7.46 in assay [2].
As for `Cc1ccc2oc(=O)c(C(=O)NCCCCCNc3c4c(nc5ccccc35)CCCC4)cc2c1`, the negative logarithm of the Ki (pKi) in assay [1] was 7.45; in assay [2], 7.49.

The values above are taken from ChEMBL document CHEMBL3352817, “Syntheses of coumarin-tacrine hybrids as dual-site acetylcholinesterase inhibitors and their activity against butylcholinesterase, Aβ aggregation, and β-secretase” (Bioorg Med Chem, 2014).
